Consider five molecules from ChEMBL document CHEMBL1134239, “Synthesis and antitumor activity of novel paclitaxel-chlorambucil hybrids” (Bioorg Med Chem Lett, 2001).

The target in assay [1] is Tubulin alpha chain (Sus scrofa) (UniProt P02550). The assay is described as follows: Compound was tested in vitro for inhibition of tubulin polymerization, expressed as ratio to that obtained for paclitaxel. The format is functional.
The subject of assay [2] is HCT-116. The assay is described as follows: Compound was tested for cytotoxicity against human colon tumor cell line (HCT116). The format is functional, cell-based.
For assay [3], the system named is M109. Nature of the assay: Compound was tested in vivo against M109 using Madison murine lung carcinoma (M109) tumor model. The format is functional, Mus musculus.

Sequence of Tubulin alpha chain (Sus scrofa) (P02550 whole entry, looked up): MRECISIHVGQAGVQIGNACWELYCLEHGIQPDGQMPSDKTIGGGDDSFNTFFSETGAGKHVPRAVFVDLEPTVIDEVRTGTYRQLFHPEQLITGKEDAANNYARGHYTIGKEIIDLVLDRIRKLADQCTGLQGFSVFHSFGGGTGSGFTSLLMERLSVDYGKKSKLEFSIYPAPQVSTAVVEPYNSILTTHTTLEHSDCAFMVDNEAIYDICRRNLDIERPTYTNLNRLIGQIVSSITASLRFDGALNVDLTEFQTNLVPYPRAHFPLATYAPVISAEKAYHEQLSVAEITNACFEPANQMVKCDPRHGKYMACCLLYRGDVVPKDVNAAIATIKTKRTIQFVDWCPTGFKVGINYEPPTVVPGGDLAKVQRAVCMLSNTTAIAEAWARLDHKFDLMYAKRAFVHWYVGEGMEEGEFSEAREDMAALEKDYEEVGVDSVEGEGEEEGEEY

Turning to `CC(=O)O[C@H]1C(=O)[C@@]2(C)C([C@H](OC(=O)c3ccccc3)[C@]3(O)C[C@H](OC(=O)[C@H](O)[C@@H](NC(=O)c4ccccc4)c4ccccc4)C(C)=C1C3(C)C)[C@]1(OC(C)=O)CO[C@@H]1C[C@@H]2OCOC(=O)N(CCOC(=O)CCCc1ccc(N(CCCl)CCCl)cc1)CCOC(=O)CCCc1ccc(N(CCCl)CCCl)cc1` (some centres undefined), the Tubulin polymerization in assay [1] is 70. Besides, half-maximal inhibition in assay [2] (IC50) was put at 24 nM. The same molecule displayed a T/C in assay [3] of 224%.
As to `CC(=O)O[C@H]1C(=O)[C@@]2(C)[C@H]([C@H](OC(=O)c3ccccc3)[C@]3(O)C[C@H](OC(=O)[C@H](O)[C@@H](NC(=O)c4ccccc4)c4ccccc4)C(C)=C1C3(C)C)[C@]1(OC(C)=O)CO[C@@H]1C[C@@H]2O` [PACLITAXEL], the Tubulin polymerization in assay [1] is 1. The molecule also had a T/C in assay [3] of 246%.
On to `CC(=O)O[C@H]1C(=O)[C@@]2(C)C([C@H](OC(=O)c3ccccc3)[C@]3(O)C[C@H](OC(=O)[C@H](O)[C@@H](NC(=O)c4ccccc4)c4ccccc4)C(C)=C1C3(C)C)[C@]1(OC(C)=O)CO[C@@H]1C[C@@H]2OC(=O)CCCc1ccc(N(CCCl)CCCl)cc1` (some centres undefined), for which the Tubulin polymerization in assay [1] came to 53. Moreover, the IC50 in assay [2] stood at 161 nM. The molecule further came in with a T/C in assay [3] of 127%.
For `CC(=O)O[C@H]1C(=O)[C@@]2(C)C([C@H](OC(=O)c3ccccc3)[C@]3(O)C[C@H](OC(=O)[C@H](O)[C@@H](NC(=O)c4ccccc4)c4ccccc4)C(C)=C1C3(C)C)[C@]1(OC(C)=O)CO[C@@H]1C[C@@H]2OCOC(=O)CCCc1ccc(N(CCCl)CCCl)cc1` (some centres undefined), in that order: 62, 4.6 nM and 155%.
For the molecule `CC(=O)OCCN(CCOC(C)=O)C(=O)OCO[C@H]1C[C@H]2OC[C@@]2(OC(C)=O)C2[C@H](OC(=O)c3ccccc3)[C@]3(O)C[C@H](OC(=O)[C@H](O)[C@@H](NC(=O)c4ccccc4)c4ccccc4)C(C)=C([C@@H](OC(C)=O)C(=O)[C@@]21C)C3(C)C` (some centres undefined), in assay [1], the Tubulin polymerization came to 6.5. For the same molecule, the IC50 in assay [2] is 3.9 nM. In assay [3], this molecule displayed a T/C of 17%.

For orientation: IC50 means the midpoint of a concentration-inhibition curve. Higher therefore signals lower potency. What is called T/C is the ratio of treated to control.
